Measurements taken from patent US8268853B2, “3,9-diazaspiro[5,5]undecane amides and ureas and methods of use thereof” (Abbott Laboratories, priority 2009, dated 2012).

What was measured:
human α4β2 NNR = target: T1, human α4β2 NNR (Homo sapiens, UniProt P17787+P43681); assay: Calcium flux assay (FLIPR), potentiation of submaximal nicotine response in HEK 293 cells expressing α4β2; format: cell-based; settings: HEK 293 cells expressing human α4β2; potentiation of submaximal (EC20-30%) agonist such as nicotine; read-out: EC50 (α4β2 PAM)
T1 construct: expressed in transfected cells
T1 sequence (P43681 29-627 limits assumed): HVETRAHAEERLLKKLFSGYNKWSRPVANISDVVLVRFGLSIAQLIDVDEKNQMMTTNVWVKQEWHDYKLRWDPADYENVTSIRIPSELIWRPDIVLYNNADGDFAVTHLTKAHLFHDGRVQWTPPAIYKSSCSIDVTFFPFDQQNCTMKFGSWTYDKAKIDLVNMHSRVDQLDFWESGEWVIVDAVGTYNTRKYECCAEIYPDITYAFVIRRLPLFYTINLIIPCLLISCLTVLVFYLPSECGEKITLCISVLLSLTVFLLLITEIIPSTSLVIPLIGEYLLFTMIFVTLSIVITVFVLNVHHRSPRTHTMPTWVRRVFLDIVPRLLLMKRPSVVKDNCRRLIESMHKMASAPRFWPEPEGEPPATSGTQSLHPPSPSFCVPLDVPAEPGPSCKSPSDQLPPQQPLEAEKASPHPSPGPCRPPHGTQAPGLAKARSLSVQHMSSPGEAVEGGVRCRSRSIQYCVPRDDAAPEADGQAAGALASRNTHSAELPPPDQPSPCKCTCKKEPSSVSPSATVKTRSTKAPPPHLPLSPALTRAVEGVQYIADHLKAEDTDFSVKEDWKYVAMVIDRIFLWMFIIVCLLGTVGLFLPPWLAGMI
T1 sequence (P17787 26-502): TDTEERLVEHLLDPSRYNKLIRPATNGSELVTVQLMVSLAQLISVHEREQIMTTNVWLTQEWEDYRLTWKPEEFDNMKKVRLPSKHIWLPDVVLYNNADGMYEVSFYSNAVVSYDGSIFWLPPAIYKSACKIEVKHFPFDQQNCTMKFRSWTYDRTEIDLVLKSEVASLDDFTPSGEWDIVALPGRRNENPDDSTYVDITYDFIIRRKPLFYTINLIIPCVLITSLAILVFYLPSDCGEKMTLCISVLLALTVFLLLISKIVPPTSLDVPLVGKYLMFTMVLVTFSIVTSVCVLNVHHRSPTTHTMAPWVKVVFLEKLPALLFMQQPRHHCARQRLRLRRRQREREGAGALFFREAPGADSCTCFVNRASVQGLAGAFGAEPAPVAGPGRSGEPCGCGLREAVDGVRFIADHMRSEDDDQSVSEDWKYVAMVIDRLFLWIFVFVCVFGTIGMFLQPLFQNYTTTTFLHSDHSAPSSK
Description: One manner to characterize α4β2 PAM activity is by characterization in clonal cell lines (for example, human embryonic kidney 293 cells) expressing the human neuronal nicotinic acetylcholine receptor subtype α4β2, particularly by use of Fluorescent Image Plate Reader technology. Effects on calcium flux or membrane potential changes can be assessed. Such assays have been reported and further details for carrying out the assays can be obtained in International Publication No. WO 2006/114400. Another method to identify and characterize allosteric modulator activity is by expressing the α4β2 subunits in Xenopus oocytes, and by measuring electrophysiological effects on ligand-evoked current responses as previously described in Curtis, L., et al., Molecular Pharmacology, 61: 127-135, 2002.
To determine the effectiveness of representative compounds of this invention as ligands for α4β2 PAM activity, the compounds of the invention can be evaluated according to the Calcium Flux Assay described below.
Calcium Flux Assays using Cells Expressing NNR Subtypes
Human embryonic kidney (HEK) 293 cells stably expressing human α4β2 or α3β4 combinations are grown to confluency in 162 cm^2 tissue culture flasks in DMEM media supplemented with 10% FBS and 25 μg/mL zeocin and 200 μg/mL hygromycin B. Cells expressing rat or ferret subunits may also be used. For assessing α3* or α7* selectivity, IMR-32 cells may also be used. IMR-32 neuroblastoma cells (ATCC) are grown to confluency in 162 cm^2 tissue culture flasks in minimum essential media supplemented with 10% FBS and 1 mM sodium pyruvate, 1% non-essential amino acids and 1% antibiotic-antimycotic. For the calcium flux assay, the cells are then dissociated using cell dissociation buffer and 100-150 μL per well of 3.5×10^5 cells/mL cell suspension (˜50,000-100,000 cells/well) was plated into 96-well black plates (poly-D-lysine precoated) with clear bottom and maintained for 24-48 hours in a tissue culture incubator at 37° C. under an atmosphere of 5% CO2: 95% air. Other clonal cell lines or primary cell cultures that express endogenous α4* nicotinic receptors may also be used in this assay. Calcium flux was measured using calcium-3 assay kit (Molecular Devices, Sunnyvale, Calif.) or fluo-4 (Invitrogen). A stock solution of the dye was prepared by dissolving each vial supplied by the vendor in Hank's balanced salt solution buffer (HBSS) or 150 mM NMDG, 20 mM calcium chloride containing 10 mM HEPES. The stock solution was diluted 1:20 using the same buffer before use. The growth media was removed from the cells. The cells were loaded with 100 μL of the dye per well and incubated at room temperature for up to one hour for HEK 293 clonal stable cell lines or 30 minutes-45 minutes at 37° C. for IMR-32 cells. Fluorescence measurements were read simultaneously from all the wells by a Fluorometic Imaging Plate Reader (FLIPR) at an excitation wavelength of 480 nm and an emission wavelength of 520 nm. Baseline fluorescence was measured for the first 6 seconds at which 3× concentrations of modulator/test compounds were added to the cell plate at 50 μL and incubated for five minutes. The fluorescence intensity was captured every second for the first 1 minute followed by every 5 seconds for an additional 4 minutes. This procedure was followed by 50 μL of 4× concentration of agonist and readings were taken for a period of 3-5 minutes as described above.
The ability of test compounds to positively modulate the response (i.e., increase the response) induced by a submaximal concentration of agonist (EC20-30%) such as nicotine is measured. Potentiation is measured based on peak fluorescence responses by screening compounds at fixed concentrations or in a concentration-response manner to derive EC50 values. The concentration dependence of changes in fluorescence responses is fitted by nonlinear regression analysis (GraphPad Prism, San Diego, Calif.) to obtain EC50 values. […]

[1] = target: T2, hERG cardiac potassium channel (Homo sapiens, UniProt Q12809); assay: [3H]dofetilide/HEK-293 membrane competition binding assay; settings: displacement of [3H]dofetilide, HEK-293 membrane homogenates expressing hERG; Ki from IC50 by Cheng-Prusoff
T2 construct: expressed in transfected cells; host or cells: HEK-293 cells (membrane homogenate)
T2 sequence (Q12809 whole entry): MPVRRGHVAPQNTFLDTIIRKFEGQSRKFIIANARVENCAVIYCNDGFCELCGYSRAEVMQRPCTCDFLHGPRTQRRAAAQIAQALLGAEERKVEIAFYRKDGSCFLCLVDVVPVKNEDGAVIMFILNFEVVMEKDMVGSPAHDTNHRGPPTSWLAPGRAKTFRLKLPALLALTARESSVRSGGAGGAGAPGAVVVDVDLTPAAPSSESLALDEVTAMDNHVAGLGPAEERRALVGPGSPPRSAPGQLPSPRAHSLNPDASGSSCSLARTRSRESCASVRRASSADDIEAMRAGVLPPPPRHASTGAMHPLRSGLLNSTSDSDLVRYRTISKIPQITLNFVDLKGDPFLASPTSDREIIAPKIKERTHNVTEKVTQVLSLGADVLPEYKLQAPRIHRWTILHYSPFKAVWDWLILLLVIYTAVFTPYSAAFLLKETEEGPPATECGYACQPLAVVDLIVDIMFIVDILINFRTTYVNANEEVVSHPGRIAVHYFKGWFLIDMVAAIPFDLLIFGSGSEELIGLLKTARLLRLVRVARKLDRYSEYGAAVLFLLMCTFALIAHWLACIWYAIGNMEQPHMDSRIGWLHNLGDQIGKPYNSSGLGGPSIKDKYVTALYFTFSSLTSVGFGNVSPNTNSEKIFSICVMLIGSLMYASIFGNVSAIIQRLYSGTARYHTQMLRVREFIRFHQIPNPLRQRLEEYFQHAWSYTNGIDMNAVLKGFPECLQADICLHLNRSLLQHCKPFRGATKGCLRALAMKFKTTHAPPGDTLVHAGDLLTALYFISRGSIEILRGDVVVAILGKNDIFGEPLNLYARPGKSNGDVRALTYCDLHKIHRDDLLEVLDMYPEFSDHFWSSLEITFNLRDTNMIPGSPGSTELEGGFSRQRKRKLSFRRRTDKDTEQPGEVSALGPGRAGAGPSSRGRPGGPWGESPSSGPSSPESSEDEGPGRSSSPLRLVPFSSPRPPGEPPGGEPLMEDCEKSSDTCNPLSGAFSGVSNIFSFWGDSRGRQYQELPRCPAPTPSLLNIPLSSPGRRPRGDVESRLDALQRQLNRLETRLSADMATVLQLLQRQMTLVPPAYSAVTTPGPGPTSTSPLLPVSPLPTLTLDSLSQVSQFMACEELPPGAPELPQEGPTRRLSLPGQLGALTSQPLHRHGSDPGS
Description: Drugs that block the cardiac potassium channel encoded by the human ether-a-go-go gene (hERG) have been associated clinically with QT interval prolongation, proarrhythmia, and in some rare cases, sudden cardiac death. The identification of drugs that block hERG has become a critical component of the safety profile. The [^3H]dofetilide/HEK-293 membrane competition binding assay described below permits the ranking of compounds for their potential to block the hERG potassium channel.
[^3H]dofetilide/HEK-293 Membrane Competition Binding Assay
The binding affinity of test drugs for the hERG cardiac potassium channel was determined by their ability to displace tritiated dofetilide (a class III antiarrhythmic drug and potent hERG blocker) in membrane homogenates from HEK-293 cells heterogously expressing the hERG channel. The assay was performed as previously described (Diaz, G.; Daniell, K.; Leitza, S. T.; Martin, R. L.; Su, Z.; McDermott, J. S.; Cox, B. F.; Gintant, G. A. The [^3H]dofetilide binding assay is a predictive screening tool for hERG blockade and proarrhythmia: Comparison of intact cell and membrane preparations and effects of altering [K^+]O. Journal of Pharmacological and Toxicological Methods 2004, 50, 187-199.). Briefly, drug dilutions were prepared from 10 mM dimethyl sulfoxide stocks and the following were added to a 96-well polystyrene plate (Perkin-Elmer Optiplate): 20 μL of assay binding buffer (for total bounds), or 1 μM astemizole (for non-specific bounds), or test drug, 50 μL of [^3H]dofetilide (20 nM, ˜80 Ci/mmol specific activity), and 130 μL of membrane homogenate (final protein concentration of 30 μg per well). The plates were incubated at ambient temperature for 45 minutes, aspirated onto GF/B filter plates (Perkin-Elmer), and washed with 2 mL of cold wash buffer. After allowing the plates to dry, 50 μL of scintillant (Perkin-Elmer MicroScint 20) were added to each well and the radioactivity was counted in a Perkin-Elmer Topcount NXT scintillation counter. IC50 determinations were calculated from competition curves using 6 drug concentrations, half-log apart, starting at a high concentration of 100 μM (final assay dimethyl sulfoxide concentration=1%) using a four-parameter logistic equation. Ki values were derived from the calculated IC50 values by using the Cheng and Prusoff (Cheng, Y.; Prusoff, W. H. Relationship between the inhibition constant (KI) and the concentration of inhibitor which causes 50 percent inhibition (I50) of an enzymatic reaction. Biochemical Pharmacology 1973, 22(23), 3099-3108) equation (Ki=IC50/1+[ligand]/Kd) using Kd values for [^3H]dofetilide obtained from saturation assays previously described (Diaz et al., 2004).

SMILES	EC50 (human α4β2 NNR) [µM]	Ki [1] [µM]
COc1cc(C(=O)N2CCC3(CCN(C)CC3)CC2)ccc1F [Example 2, 3-(4-fluoro-3-methoxybenzoyl)-9-methyl-3,9-diazaspiro[5.5]undecane]	0.97	> 53
COc1ccc(C(=O)N2CCC3(CCN(C)CC3)CC2)cc1F [Example 3, 3-(3-fluoro-4-methoxybenzoyl)-9-methyl-3,9-diazaspiro[5.5]undecane]	4.3	13
COc1ccc(C(=O)N2CCC3(CCN(C)CC3)CC2)cc1Cl [Example 4, 3-(3-chloro-4-methoxybenzoyl)-9-methyl-3,9-diazaspiro[5.5]undecane]	0.16	16
COc1c(Cl)cc(C(=O)N2CCC3(CCN(C)CC3)CC2)cc1Cl [Example 5, 3-(3,5-dichloro-4-methoxybenzoyl)-9-methyl-3,9-diazaspiro[5.5]undecane]	0.04	19
COc1cc(C(=O)N2CCC3(CCN(C)CC3)CC2)cc(Cl)c1OC [Example 6, 3-(3-chloro-4,5-dimethoxybenzoyl)-9-methyl-3,9-diazaspiro[5.5]undecane]	0.36	> 54

The next lines start with results.

EC50 (human α4β2 NNR) [µM]	SMILES	Ki [1] [µM]
1.62	COc1ccc(NC(=O)N2CCC3(CCN(C)CC3)CC2)cc1F [Example 7, N-(3-fluoro-4-methoxyphenyl)-9-methyl-3,9-diazaspiro[5.5]undecane-3-carboxamide]	8.5
0.61	COc1ccc(NC(=O)N2CCC3(CCN(C)CC3)CC2)cc1Cl [Example 8, N-(3-chloro-4-methoxyphenyl)-9-methyl-3,9-diazaspiro[5.5]undecane-3-carboxamide]	
3.74	COc1cc(OC)c(NC(=O)N2CCC3(CCN(C)CC3)CC2)cc1Cl [Example 9, N-(5-chloro-2,4-dimethoxyphenyl)-9-methyl-3,9-diazaspiro[5.5]undecane-3-carboxamide]	
1.69	COc1ccc(CC(=O)N2CCC3(CCN(C)CC3)CC2)cc1F [Example 10, 3-[(3-fluoro-4-methoxyphenyl)acetyl]-9-methyl-3,9-diazaspiro[5.5]undecane]	
